For five molecules, IC50 results are on record in US20240199634A1, “CYCLIC COMPOUNDS AND METHODS OF USING SAME” (SCHRÖDINGER, INC., priority 2021, published 2024).

Experiment [1] deals with phosphorylation of MCM2 S53 in colo205 cells. The experiment in a line: Phosphorylated MCM2 MSD Electrochemiluminescence Assay. The format is cell-based. As to conditions: Homo sapiens, COLO 205, 20 h incubation, read-out: pMCM2-S53 MSD Colo205 IC50. On the procedure: Phosphorylated MCM2 MSD Electrochemiluminescence Assay
The effect of CDC7 inhibitors on cellular phosphorylation of the CDC7 substrate MCM2 was determined using the following protocol:
A total of 40,000 colo205 cells in 100 μL culture medium (1640 medium+10% Fetal bovine serum+1% Penicillin-Streptomycin) were plated in 96-well cell culture plates and allowed to attach for 6 hours. 3-fold serial dilutions of test compounds were prepared in completed PBS at 25× final concentration and 4 μL of each were added to the cells and incubated for 20 hours at 37° C., 5% CO2. Each concentration was tested in duplicate. After the 20 h incubation, cells were washed with 150 μL PBS and lysed with 40 μL MSD lysis buffer (obtained from Meso Scale Diagnostics) supplied with 1× complete ULTRA cocktail inhibitor (obtained from Roche). To detect phosphorylation of MCM2 S53, 30 μL of capture antibody solution (obtained from Abnova, catalog number H00004171-M01, 1:500) was added to each well of MULTI-ARRAY 96-well High Bind Plate, and incubated overnight. The antibody solution was removed, wells blocked with BSA solution and plates washed, followed by addition of 30 μl of cell lysate per well. After 2 h incubation, plates were washed. 30 μL of 1× detection antibody solution (obtained from Abcam, catalog number ab109133, 1:1000) was then added to each well and incubate for 1 hour. Plates were washed and 30 μL of 1× secondary antibody solution (obtained from MSD, catalog number R32AB-1, 1:5000) was added to each well and incubate for 1 hour. Plates were washed and 150 μL of 1× Read Buffer T was added to each well of the MSD plate. The electrochemiluminescence signal was measured on a MESO SECTOR 5600 plate reader. The percentage of remaining phosphorylated MCM2 signal was calculated following the equation below.
[formula] • HC (high control): Cells treated with DMSO • Cpds: Cells treated with test compounds • LC (low control): Cells treated with positive control CDC7 inhibitor

For experiment [2], the target named is T1, Full length human CDC7 protein co-expressed with DBF4 (Homo sapiens, UniProt O00311).
T1 construct: Full length human CDC7 protein co-expressed with DBF4; purchased SignalChem (China)
T1 sequence (O00311 whole entry): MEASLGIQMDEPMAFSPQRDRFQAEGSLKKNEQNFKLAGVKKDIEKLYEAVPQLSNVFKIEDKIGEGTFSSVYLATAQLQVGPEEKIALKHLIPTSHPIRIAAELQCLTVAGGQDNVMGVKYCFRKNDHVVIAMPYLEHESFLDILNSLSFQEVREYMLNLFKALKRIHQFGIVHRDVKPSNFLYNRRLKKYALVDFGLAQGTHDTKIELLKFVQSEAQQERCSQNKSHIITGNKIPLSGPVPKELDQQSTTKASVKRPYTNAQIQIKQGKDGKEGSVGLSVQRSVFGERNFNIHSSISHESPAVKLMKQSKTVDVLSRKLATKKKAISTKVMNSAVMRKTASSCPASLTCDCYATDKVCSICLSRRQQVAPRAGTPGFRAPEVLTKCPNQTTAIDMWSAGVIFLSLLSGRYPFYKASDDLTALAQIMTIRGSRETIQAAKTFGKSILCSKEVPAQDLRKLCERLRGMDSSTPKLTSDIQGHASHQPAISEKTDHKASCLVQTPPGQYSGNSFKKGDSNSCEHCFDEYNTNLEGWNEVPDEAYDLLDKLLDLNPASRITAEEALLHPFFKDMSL
T1 sequence (Q9UBU7 whole entry partner): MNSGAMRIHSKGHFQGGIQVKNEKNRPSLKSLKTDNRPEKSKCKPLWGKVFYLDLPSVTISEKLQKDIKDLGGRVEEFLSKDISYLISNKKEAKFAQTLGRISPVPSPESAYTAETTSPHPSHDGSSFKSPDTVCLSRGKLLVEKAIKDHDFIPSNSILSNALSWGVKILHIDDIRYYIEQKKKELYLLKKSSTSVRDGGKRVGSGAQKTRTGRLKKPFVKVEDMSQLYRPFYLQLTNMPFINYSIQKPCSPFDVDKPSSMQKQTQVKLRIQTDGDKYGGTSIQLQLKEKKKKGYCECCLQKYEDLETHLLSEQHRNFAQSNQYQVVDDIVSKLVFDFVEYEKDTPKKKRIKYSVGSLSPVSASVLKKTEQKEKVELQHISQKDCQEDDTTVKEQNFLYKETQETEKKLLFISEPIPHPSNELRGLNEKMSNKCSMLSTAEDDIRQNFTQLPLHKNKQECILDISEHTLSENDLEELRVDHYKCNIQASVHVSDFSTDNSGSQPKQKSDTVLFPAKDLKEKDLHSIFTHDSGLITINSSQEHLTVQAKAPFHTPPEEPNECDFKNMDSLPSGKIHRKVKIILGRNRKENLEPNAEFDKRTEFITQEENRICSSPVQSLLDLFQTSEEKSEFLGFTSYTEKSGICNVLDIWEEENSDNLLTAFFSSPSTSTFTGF
The experiment in a line: CDC7 Kinase Biochemical Assay (ADP-Glo, PDKtide substrate). As to conditions: 0.1 nM CDC7/DBF4, 1 μM ATP, 10 μM PDKtide, 4 h reaction. As to the method: CDC7 Kinase Biochemical Assay PROTOCOL:
Full length human CDC7 protein co-expressed with DBF4 was purchased from SignalChem (China). CDC7 kinase activity was determined with PDKtide (SignalChem) as a substrate and by measuring ADP production using the ADP-Glo™ Kinase Assay kit (Promega) following the manufacturer's instructions. The kinase reaction was performed using the following conditions: Buffer: 40 mM Tris pH 7.5, 20 mM MgCl2, 0.1 mg/mL BSA and 50 μM DTT. Final reaction mix contained 0.1 nM CDC7/DBF4, 1 μM ATP and 10 μM PDKtide. The kinase reaction time was 4 h. The ADP-Glo signal was measured using an EnVision plate reader (PerkinELmer).
Percent inhibition of CDC7 kinase activity was calculated based on the following formula:
[formula] • SSample: the signal of compounds • SHigh Ctrl: the signal of high control (DMSO) • SLow Ctrl: the signal of low control (positive control CDC7 inhibitor)
(In general: ADP-Glo first removes unused ATP, then detects ADP through luciferase.)

Turning to `CCC1(O)CC(F)(F)Cc2c1[nH]c(=O)c1sc(-c3cn[nH]c3)cc21` (single isomer, unassigned) [Compound 51], the half-inhibitory concentration (IC50) in experiment [1] was not above 5 nM; in experiment [2] it was not above 1 nM.
For `CC(C)(C)[C@@]1(O)COCc2c1[nH]c(=O)c1sc(N3CCOCC3)cc21` [Compound 85, (S)-4-(tert-butyl)-4-hydroxy-8-morpholino-1,3,4,5-tetrahydro-6H-pyrano[4,3-b]thieno[3,2-d]pyridin-6-one], in that order: more than 50 nM and not above 1 nM.
With `COC12CCC(CC1)c1c2[nH]c(=O)c2sc(-c3cn[nH]c3)cc12` [Compound 7, 6-methoxy-2-(1H-pyrazol-4-yl)-6,7,8,9-tetrahydro-6,9-ethanothieno[2,3-c]quinolin-4(5H)-one], the IC50 in experiment [1] was 20 to 50 nM; in experiment [2], not above 1 nM.
For `Cn1nccc1-c1cc2c3c([nH]c(=O)c2s1)C(O)(C(F)(F)F)COC3` (single isomer, unassigned) [Compound 30], the IC50 in experiment [1] was more than 50 nM; in experiment [2], not above 1 nM.
As for `O=c1[nH]c2c(c3cc(-c4cn[nH]c4)sc13)COCC2(O)C(F)F` (single isomer, unassigned) [Compound 42], the IC50 in experiment [1] is 20 to 50 nM; in experiment [2], not above 1 nM.

The IC50 is the concentration at which inhibition is half-maximal.
